Laboratory results from patent publication US4795743A, “2'-deamino-2'-hydroxyistamycin Bo derivatives of low toxicity” (Zaidan Hojin Biseibutsu Kagaku Kenkyu Kai, priority 1986, dated 1989).
Values after ≈ are worked out from the molar mass of the structure shown. Like-named read-outs stand apart in the source and are kept apart here.

Assays:
[1] = system: Staphylococcus aureus 209P; test: Antibacterial spectrum, standard serial dilution method of Japan Society of Chemotherapy; type: cell-based; conditions: read-out: Minimum Growth Inhibitory Concentration
[2] = system: Staphylococcus aureus Smith; test: Antibacterial spectrum, standard serial dilution method; type: cell-based; conditions: 18 h, read-out: Minimum Growth Inhibitory Concentration
[3] = system: Staphylococcus aureus Ap 01; test: as above; type: cell-based; conditions: AP01, 18 h, read-out: Minimum Growth Inhibitory Concentration
[4] = system: Staphylococcus epidermidis 109; test: as above; type: cell-based; conditions: Staphylococcus epidermidis, 109, 18 h, read-out: Minimum Growth Inhibitory Concentration
[5] = system: Micrococcus flavus FDA 16; test: as above; type: cell-based; conditions: Micrococcus flavus, FDA16, 18 h, read-out: Minimum Growth Inhibitory Concentration
Sarcina lutea PCI 1001 = test: as above; type: cell-based; conditions: Micrococcus luteus, PCI1001, 18 h, read-out: Minimum Growth Inhibitory Concentration
Bacillus anthracis = test: microbe, parasite or virus in culture; type: cell-based; conditions: 18 h, read-out: Minimum Growth Inhibitory Concentration
[6] = system: Bacillus subtilis NRRL B-558; test: Antibacterial spectrum, standard serial dilution method; type: cell-based; conditions: NRRLB558; Bacillus subtilis NRRL B-558; Muller-Hinton medium, 37° C., 18 hours; read-out: Minimum Growth Inhibitory Concentration
[7] = system: Corynebacterium bovis 1810; test: as above; type: cell-based; conditions: read-out: Minimum Growth Inhibitory Concentration
[8] = system: Mycobacterium smegmatis ATCC 607; test: as above; type: cell-based; conditions: Mycolicibacterium smegmatis, ATCC607, 18 h, read-out: Minimum Growth Inhibitory Concentration
Escherichia coli K-12 = test: as above; type: cell-based; conditions: K12, 18 h, read-out: Minimum Growth Inhibitory Concentration
Escherichia coli K-12 R5 = test: as above; type: cell-based; conditions: K12R5, 18 h, read-out: Minimum Growth Inhibitory Concentration
[9] = system: Escherichia coli K-12 R388; test: as above; type: cell-based; conditions: K12R388, 18 h, read-out: Minimum Growth Inhibitory Concentration
[10] = system: Escherichia coli K-12 J5 R11-2; test: as above; type: cell-based; conditions: K12J5R112, 18 h, read-out: Minimum Growth Inhibitory Concentration
[11] = system: Escherichia coli K-12 ML1410; test: as above; type: cell-based; conditions: K12ML1410, 18 h, read-out: Minimum Growth Inhibitory Concentration
[12] = system: Escherichia coli K-12 LA290 R64; test: as above; type: cell-based; conditions: K12LA290R64, 18 h, read-out: Minimum Growth Inhibitory Concentration
Shigella sonnei = test: as above; type: cell-based; conditions: Muller-Hinton medium, 37° C., 18 hours, read-out: Minimum Growth Inhibitory Concentration
Salmonella typhi T-63 = test: as above; type: cell-based; conditions: Salmonella enterica, 18 h, read-out: Minimum Growth Inhibitory Concentration
Proteus rettgeri GN311 = test: as above; type: cell-based; conditions: Providencia rettgeri, read-out: Minimum Growth Inhibitory Concentration
Proteus rettgeri GN466 = test: as above; type: cell-based; conditions: Providencia rettgeri, read-out: Minimum Growth Inhibitory Concentration
Serratia sp. SOU = test: as above; type: cell-based; conditions: read-out: Minimum Growth Inhibitory Concentration
Serratia sp. 4 = test: as above; type: cell-based; conditions: Muller-Hinton medium, 37° C., 18 hours, read-out: Minimum Growth Inhibitory Concentration
Providencia sp. Pv16 = test: as above; type: cell-based; conditions: read-out: Minimum Growth Inhibitory Concentration
Providencia sp. 2991 = test: as above; type: cell-based; conditions: Providencia, SP.2991, 18 h, read-out: Minimum Growth Inhibitory Concentration
[13] = system: Pseudomonas aeruguinosa No.12; test: as above; type: cell-based, Pseudomonas aeruginosa; conditions: Muller-Hinton medium, 37° C., 18 hours, read-out: Minimum Growth Inhibitory Concentration
[14] = system: Pseudomonas aeruguinosa H9; test: as above; type: cell-based, Pseudomonas aeruginosa; conditions: read-out: Minimum Growth Inhibitory Concentration
[15] = system: Pseudomonas aeruguinosa H11; test: as above; type: cell-based, Pseudomonas aeruginosa; conditions: Muller-Hinton medium, 37° C., 18 hours, read-out: Minimum Growth Inhibitory Concentration
[16] = system: Pseudomonas aeruguinosa TI-13; test: as above; type: cell-based, Pseudomonas aeruginosa; conditions: read-out: Minimum Growth Inhibitory Concentration
[17] = system: Pseudomonas aeruguinosa GN315; test: as above; type: cell-based, Pseudomonas aeruginosa; conditions: read-out: Minimum Growth Inhibitory Concentration
[18] = system: Pseudomonas aeruguinosa 99; test: as above; type: cell-based, Pseudomonas aeruginosa; conditions: Muller-Hinton medium, 37° C., 18 hours, read-out: Minimum Growth Inhibitory Concentration
[19] = system: Pseudomonas aeruguinosa B-13; test: as above; type: cell-based, Pseudomonas aeruginosa; conditions: B13, Muller-Hinton medium, 37° C., 18 hours, read-out: Minimum Growth Inhibitory Concentration
[20] = system: Pseudomonas aeruguinosa K-Ps 102; test: as above; type: cell-based, Pseudomonas aeruginosa; conditions: read-out: Minimum Growth Inhibitory Concentration
mice = test: Acute toxicity by intravenous injection in mice; conditions: for acute toxicity (survival, symptoms): mice, intravenous injection, 200 mg/kg

Structure (SMILES) | MIC [2] [µg/mL] | MIC [3] [µg/mL] | MIC [4] [µg/mL] | MIC [5] [µg/mL] | MIC (Sarcina lutea PCI 1001) [µg/mL] | MIC (Bacillus anthracis) [µg/mL] | MIC [6] [µg/mL] | MIC [8] [µg/mL] | MIC (Escherichia coli K-12) [µg/mL] | MIC (Escherichia coli K-12 R5) [µg/mL] | MIC [9] [µg/mL] | MIC [10] [µg/mL] | MIC [11] [µg/mL] | MIC [12] [µg/mL] | MIC (Shigella sonnei) [µg/mL] | MIC (Salmonella typhi T-63) [µg/mL] | MIC (Serratia sp. 4) [µg/mL] | MIC (Providencia sp. 2991) [µg/mL] | MIC [13] [µg/mL] | MIC [15] [µg/mL] | further results
CNCC1CCC(O)C(OC2C(N)CC(O)C(N(C)C(=O)CCN)C2O)O1 (stereo not drawn) [Compound No. 4, 4-N-(β-Alanyl)-2'-deamino-2'-hydroxy-3-O-demethylistamycin Bo] | 1.56 (≈ 4 µM) | 3.13 (≈ 8.02 µM) | 1.56 (≈ 4 µM) | 3.13 (≈ 8.02 µM) | 1.56 (≈ 4 µM) | 1.56 (≈ 4 µM) | 0.78 (≈ 2 µM) | 6.25 (≈ 16 µM) | 1.56 (≈ 4 µM) | 1.56 (≈ 4 µM) | 1.56 (≈ 4 µM) | 0.78 (≈ 2 µM) | 6.25 (≈ 16 µM) | 1.56 (≈ 4 µM) | 3.13 (≈ 8.02 µM) | 0.78 (≈ 2 µM) | 12.5 (≈ 32 µM) | 3.13 (≈ 8.02 µM) | 12.5 (≈ 32 µM) | 12.5 (≈ 32 µM) | MIC ([1]; 209P, 18 h): 1.56 µg/mL (≈ 4 µM); MIC ([7]; Corynebacterium bovis, 1810, 18 h): 3.13 µg/mL (≈ 8.02 µM); MIC (Proteus rettgeri GN311; Proteus rettgeri GN311, Muller-Hinton medium, 37° C., 18 hours): 0.78 µg/mL (≈ 2 µM); MIC (Proteus rettgeri GN466; Proteus rettgeri GN466, Muller-Hinton medium, 37° C., 18 hours): 0.39 µg/mL (≈ 0.999 µM); MIC (Serratia sp. SOU; Serratia, 18 h): 1.56 µg/mL (≈ 4 µM); MIC (Providencia sp. Pv16; Providencia, SP.PV16, 18 h): 1.56 µg/mL (≈ 4 µM); MIC ([14]; Pseudomonas aeruguinosa H9, Muller-Hinton medium, 37° C., 18 hours): 12.5 µg/mL (≈ 32 µM); MIC ([16]; TI13, Pseudomonas aeruguinosa TI-13, Muller-Hinton medium, 37° C., 18 hours): 12.5 µg/mL (≈ 32 µM); MIC ([17]; Pseudomonas aeruguinosa GN315, Muller-Hinton medium, 37° C., 18 hours): 12.5 µg/mL (≈ 32 µM); MIC [18]: 25 µg/mL (≈ 64 µM); MIC [19]: 12.5 µg/mL (≈ 32 µM); MIC ([20]; KPS102, Pseudomonas aeruguinosa K-Ps 102, Muller-Hinton medium, 37° C., 18 hours): 25 µg/mL (≈ 64 µM); acute toxicity (survival, symptoms) (mice): survived without showing any sympton of toxicity; toxicity (mice; overall statement, comparison with istamycin B or low toxicity): lower toxicity than itstamycin B
CNCC1CCC(O)C(OC2C(N)CC(O)C(N(C)C(=O)CN)C2O)O1 (stereo not shown) [Compound No. 2, 2'-Deamino-2'-hydroxy-3-O-demethylistamycin B] | 1.56 (≈ 4.14 µM) | 6.25 (≈ 16.6 µM) | 1.56 (≈ 4.14 µM) | 12.5 (≈ 33.2 µM) | 1.56 (≈ 4.14 µM) | 1.56 (≈ 4.14 µM) | 3.13 (≈ 8.31 µM) | 6.25 (≈ 16.6 µM) | 1.56 (≈ 4.14 µM) | 3.13 (≈ 8.31 µM) | 3.13 (≈ 8.31 µM) | 1.56 (≈ 4.14 µM) | 6.25 (≈ 16.6 µM) | 3.13 (≈ 8.31 µM) | 6.25 (≈ 16.6 µM) | 0.78 (≈ 2.07 µM) | 25 (≈ 66.4 µM) | 6.25 (≈ 16.6 µM) | 25 (≈ 66.4 µM) | 25 (≈ 66.4 µM) | MIC ([1]; S. aureus 209P, Muller-Hinton medium, 37° C., 18 hours): 3.13 µg/mL (≈ 8.31 µM); MIC ([7]; Corynebacterium bovis 1810, Muller-Hinton medium, 37° C., 18 hours): 3.13 µg/mL (≈ 8.31 µM); MIC (Proteus rettgeri GN311; GN311, 18 h): 1.56 µg/mL (≈ 4.14 µM); MIC (Proteus rettgeri GN466; GN466, 18 h): 1.56 µg/mL (≈ 4.14 µM); MIC (Serratia sp. SOU; Serratia sp. SOU, Muller-Hinton medium, 37° C., 18 hours): 3.13 µg/mL (≈ 8.31 µM); MIC (Providencia sp. Pv16; Providencia sp. Pv16, Muller-Hinton medium, 37° C., 18 hours): 3.13 µg/mL (≈ 8.31 µM); MIC ([14]; Pseudomonas, H9, 18 h): 12.5 µg/mL (≈ 33.2 µM); MIC ([16]; Pseudomonas, TI13, 18 h): 12.5 µg/mL (≈ 33.2 µM); MIC ([17]; Pseudomonas, GN315, 18 h): 12.5 µg/mL (≈ 33.2 µM); MIC [18]: 50 µg/mL (≈ 133 µM); MIC [19]: 25 µg/mL (≈ 66.4 µM); MIC ([20]; Pseudomonas, KPS102, 18 h): 12.5 µg/mL (≈ 33.2 µM); acute toxicity (survival, symptoms) (mice): survived without showing any sympton of toxicity
